Literature values as cited in US6573290B1 (ILEX Oncology, Inc., priority 1999, dated 2003).

Key:
prostoglandin E2 (PGE2) = settings: 300 mg/day, one month phase IIa trial
Ki-ras mutations = settings: AOM-treated rats; reduced from 90%
tumor putrescine = settings: DFMO infusion, rat-tumor model
[1] = not given; remark: listed apart in the source

For `CC(C)Cc1ccc(C(C)C(=O)O)cc1` (stereo not shown) [ibuprofen], the “PGE2 levels in flat mucosa” value (prostoglandin E2 (PGE2)) is given as “significant decrease”.
For `CN1C(C(=O)Nc2ccccn2)=C(O)c2ccccc2S1(=O)=O` [piroxicam], the “number of tumors harboring Ki-ras mutations” value (Ki-ras mutations) is given as 25%.
In the case of `NCCCC(N)(C(=O)O)C(F)F` (racemic) [DFMO, 2-(difluoromethyl)-DL-ornithine], the “number of tumors harboring Ki-ras mutations” value (Ki-ras mutations) is listed as 36% and the “decrease in tumor putrescine levels” value (tumor putrescine) is listed as 90%.
For `CC[C@H]1OC(=O)[C@H](C)[C@@H](O[C@H]2C[C@@](C)(OC)[C@@H](O)[C@H](C)O2)[C@H](C)[C@@H](O[C@@H]2O[C@H](C)C[C@H](N(C)C)[C@H]2O)[C@](C)(OC)C[C@@H](C)C(=O)[C@H](C)[C@@H](O)[C@]1(C)O` [clarithrymycin], the “adverse effect: pseudomembranous colitis” value is listed as 1% and the “adverse effect: diarrhea” value (in vivo) is listed as 10%.
In the case of `Cc1c(OCC(F)(F)F)ccnc1C[S+]([O-])c1nc2ccccc2[nH]1` (stereo not shown) [lansoprazole], the “adverse effect: diarrhea” value (in vivo) is listed as 8%, the “adverse effect: headache” value (in vivo) is listed as 5% and the “adverse effect: nausea” value (in vivo) is listed as 3%.
In the case of `Cc1ccc(-c2cc(C(F)(F)F)nn2-c2ccc(S(N)(=O)=O)cc2)cc1` [celecoxib, 4-[5-(4-methyphenyl)-3-(trifluoromethyl)-1H-pyrazol-1-yl]benzenesulfonamide], the “time of peak plasma levels” value ([1]; after an oral dose) is listed as “roughly 3 hours”, the effective half-life ([1]; fasted conditions) is listed as “roughly 11 hours” and the “dose excreted in feces” value ([1]; following a single dose) is listed as 57%. For the same compound, the “dose excreted in urine” value ([1]; following a single dose) was 27%, the “delay of plasma levels with high fat meal” value ([1]; taken with a high fat meal) was 1 to 2 h and the “increase in total absorption with high fat meal” value ([1]; taken with a high fat meal) was 10-20%. For the same compound, the protein binding ([1]; within the clinical dose range) was “highly protein bound”.
In the case of `Cc1ncc([N+](=O)[O-])n1CCO` [metronidazole], the “adverse effect: disulfiram-like reaction with alcohol ingestion” value (in vivo) is listed as 20% and the “adverse effect: rash” value (in vivo) is listed as 5%.
For `COc1ccc2[nH]c([S+]([O-])Cc3ncc(C)c(OC)c3C)nc2c1` (stereo not shown) [omeprazole], the “adverse effect: dizziness” value (in vivo) is listed as 2%.
